Results taken from patent US20240352145A1, “EFFICACY OF ANTI-TROP-2-SN-38 ANTIBODY DRUG CONJUGATES FOR THERAPY OF TUMORS RELAPSED/REFRACTORY TO CHECKPOINT INHIBITORS” (Immunomedics, Inc., priority 2016, published 2024).
Values joined by “and” are separate entries in the source; they are usually repeats but may differ in a detail not shown here. Identical values can stand only once. Like-named read-outs stand apart in the source and are kept apart here.

Key:
[1] = SN-38 release at lysosomal pH; type: physicochemical; settings: pH 5.3 at 37° C.
small-cell lung cancer = type: in vivo, human
Description: This is a person with a diagnosis of small-cell lung cancer, involving their left lung, mediastinal lymph nodes, and MRI evidence of a metastasis to the left parietal brain lobe. Prior chemotherapy includes carboplatin, etoposide, and topotecan, but with no response noted. Radiation therapy also fails to control their disease.

[2] = test system: metastatic epithelial tumors; test: Phase I trial of sacituzumab govitecan (25 patients); type: in vivo, human
Description: The trial was designed as a standard 3+3 Phase I design, starting at a dose of 8 mg/kg per injection, with dosages given weekly for 2 weeks in a 3-week treatment cycle.
Prior to the start of each infusion, most patients received acetaminophen, anti-histamines (H1 and H2 blockers), and dexamethasone. Prophylactic use of antiemetics or anti-diarrheal medications was prohibited. Therapy consisted of 2 consecutive doses given on days 1 and 8 of a 3-week treatment cycle, with the intent to allow patients to continue treatment for up to 8 cycles (i.e., 16 treatments) unless there was unacceptable toxicity or progression. Patients showing disease stabilization or response after 8 cycles could continue treatments.
The maximum tolerated dose (MTD) was judged on the patient's tolerance to the first treatment cycle.

[3] = test system: human gastric carcinoma xenograft, NCI-N87; test: NCI-N87 gastric carcinoma xenograft, Example 17; type: in vivo, mouse
Description: (§1) In Vivo Therapeutic Studies—NCr female athymic nude (nu/nu) mice, 4-8 weeks old, were purchased from Taconic Farms (Germantown, NY). NCI-N87 gastric tumor xenografts were established by harvesting cells from tissue culture and making a final cell suspension 1:1 in matrigel (BD Bioscience; San Jose, CA), with each mouse receiving a total of 1×10^7 cells s.c. in the right flank. For BxPC-3. xenografts of 1 g were harvested, and a tumor suspension made in HBSS to a concentration of 40% tumor w/v. This suspension was mixed 1:1 with matrigel for a final tumor suspension of 20% w/v. […] For IHC, tumors were allowed to grow to approximately 0.5 cm^3 before the mice were euthanized and the tumors removed, formalin-fixed and paraffin-embedded. For therapy studies, mice were randomized into treatment groups and therapy begun when tumor volumes were approximately 0.25 cm^3.
(§2) Mice were euthanized and deemed to have succumbed to disease once tumors grew to greater than 1.0 cm^3 in size. […] Time to progression (TTP) was determined as time post-therapy initiation when the tumor grew more than 20% in size from its nadir.
Survival studies were analyzed using Kaplan-Meier plots (log-rank analysis), using the Prism GraphPad Software (v4.03) software package (Advanced Graphics Software, Inc., Encinitas, CA).

[4] = test system: human pancreatic adenocarcinoma xenograft model (BxPC-3); test: Clinically-relevant dosing schemes, BxPC-3 xenograft; type: in vivo, mouse; settings: for TTP: untreated 5.0±2.3
Description: as §1, §2
A human dose of 8 mg/kg translates to a murine dose of 98.4 mg/kg, or approximately 2 mg to a 20 g mouse.

TNBC = test: Phase I/II, TNBC cohort; type: in vivo, human
Description: Previous treatments included cyclophosphamide, doxorubicin, carboplatin, gemcitabine, capecitabine, eribulin, cisplatinum, anastrozole, vinorelbine, bevacizumab and tamoxifen.

[5] = test system: BXPC3 model of human pancreatic cancer; settings: mouse, in vivo, sc
BxPC-3 = test: In vitro cytotoxicity, BxPC-3
Description: (§3) Cell lines, antibodies, and chemotherapeutics—All human cancer cell lines used in this study were purchased from the American Type Culture Collection.

COLO 205 = test: In vitro cytotoxicity, COLO 205
Description: as §3

SK-MES-1 = test: In vitro cytotoxicity, SK-MES-1
Description: as §3

[6] = update of on-going trial, 17 TNBC patients

With IMMU-132 the “time for release of 50% of the SN-38” value [1] was ~13 h, the “shrinkage of target left lung mass” value (small-cell lung cancer; 18 mg/kg once every three weeks, after fifth infusion) was 13% and the “reduction of brain metastasis” value (small-cell lung cancer; after another 3 months) was 21%. For the same substance, the “reduction of left lung mass” value (small-cell lung cancer; after another 3 months) was 25%, the “reduction of brain metastasis” value (small-cell lung cancer; after fifth infusion) was 10% and the “adverse events after second dose” value (small-cell lung cancer; in vivo) was “hypotension and a Grade 2 neutropenia”. The “Delay/adjustment 1st cycle, patients” value ([2]; 8 mg/kg, 7 patients treated) was 1, the “Dose-limiting toxicity 1st cycle, patients” value ([2]; 8 mg/kg, 7 patients treated) was 0 and the “patients with grade-3 diarrhea” value ([2]; 10 mg/kg dose level) was 1. For the same substance, the “Delay/adjustment 1st cycle, patients” value ([2]; 10 mg/kg, 6 patients treated) was 0, the “Dose-limiting toxicity 1st cycle, patients” value ([2]; 10 mg/kg, 6 patients treated) was 0 and the “Delay/adjustment 1st cycle, patients” value ([2]; 12 mg/kg, 9 patients treated) was 5. The “Dose-limiting toxicity 1st cycle, patients” value ([2]; 12 mg/kg, 9 patients treated, listed as sacituzumab govitecan) was 0/9 and 0, the “Delay/adjustment 1st cycle, patients” value ([2]; 18 mg/kg, 3 patients treated) was 2 and the “median time to progression” value ([2]; 24 patients) was 3.6 months. For the same substance, the “time to progression, range” value ([2]; 24 patients) was 1-12.8 months, the “febrile neutropenia, patients” value ([2]; 25 patients) was 2 and the “long-term survival (15-20 months)” value ([2]; 25 patients) was ~25%. For the same substance, the “patients with >30% reduction of target lesions” value ([2]; 25 patients) was 12%, the “patients with SD” value ([2]; 25 patients) was 60% and the “free SN-38 as share of total SN-38, average” value ([2]; 28 30-min serum samples from 7 patients, HPLC) was 2.91±0.91%. For the same substance, the infusion-related adverse events ([2]; 297 infusions over 2-3 h) was “no infusion-related adverse events”, the “adverse event possibly related to treatment” value ([2]; GC patient #9, 1 dose of 10 mg/kg) was “grade 3 febrile neutropenia” and the “progressed (PD) as best response, patients” value ([2]; RECIST 1.1) was 7. For the same substance, the “partial responses, patients” value ([2]; RECIST 1.1, 25 patients) was 3, the “stable disease as best response, patients” value ([2]; RECIST 1.1, 25 patients, listed as Sacituzumab govitecan) was 15 and the “stable disease as best response, patients” value ([2]; RECIST 1.1, 25 patients, listed as sacituzumab govitecan) was “Fifteen”. For the same substance, the tumor shrinkage ([2]; SCLC patient who failed prior topoisomerase I inhibitor therapy) was 38%, the “median time to progression” value ([2]; advanced pancreatic ductal cancer, N=7) was 2.9 months and the tumor shrinkage ([2]; colon cancer patient who failed prior topoisomerase I inhibitor therapy) was 13%. The “intact conjugate in trough serum samples” value ([2]; drawn immediately before next dose) was “no sacituzumab govitecan could be detected”, the “antibody response to hRS7 IgG or SN-38” value ([2]; multiple cycles for up to 12 months) was “no antibody response to the hRS7 IgG or SN-38 was detected” and the “reduction in target lesions” value ([2]; patient 10, CRC, 5 doses of 10 mg/kg) was 23%. The “maximum reduction in target lesions” value ([2]; patient 10, CRC, after 18 doses) was 28%, the “plasma CEA” value ([2]; patient 10, CRC, baseline 38.5 ng/mL) was 1.6 ng/mL and the time to progression ([2]; patient 18, TNBC) was 45 weeks. For the same substance, the “reduction in target lesions” value ([2]; patient 18, TNBC, after 3 doses) was 13%, the “reduction in target lesions” value ([2]; patient 18, TNBC, after 16 doses) was 19% and the period until progression ([2]; patient 20, HRPC, 34 treatments) was 12.7 months. The “period of SD” value ([2]; patient 25, esophageal cancer, 18 then 13.5 mg/kg) was 30 weeks, the “period of disease stabilization” value ([2]; patient #11, PDC) was 15 weeks and the CA19-9 serum titer ([2]; patient #11, PDC, 10 mg/kg, after 8 doses, baseline 5880) was 2840 units/mL. For the same substance, the “SN-38 bound to the IgG” value ([2]; patient #25, 13.5 mg/kg) was 96.8%, the “free SN-38, average” value ([2]; patient #25, 13.5 mg/kg) was 105.4 ± 47.7 ng/mL and the “free SN-38G as share of total SN-38+SN-38G” value ([2]; patient #25, 13.5 mg/kg) was 11.6%. The “free SN-38G, average” value ([2]; patient #25, 13.5 mg/kg) was 13.9 ± 4.1 ng/mL, the “total SN-38, average” value ([2]; patient #25, 13.5 mg/kg, 11 peak acid-hydrolyzed samples) was 3309.8 ± 601.8 ng/mL and the “Free SN-38G” value ([2]; patient #25, 18 mg/kg) was 26.2 ng/mL. For the same substance, the “free SN-38 (non-hydrolyzed sample)” value ([2]; patient #25, 18 mg/kg) was 155.2 ng/mL, the “free SN-38G as share of total unbound SN-38+SN-38G” value ([2]; patient #25, 18 mg/kg) was 14.4% and the “free SN-38 as share of total” value ([2]; patient #25, 18 mg/kg) was 3.0%. For the same substance, the “total SN-38 (acid-hydrolyzed sample)” value ([2]; patient #25, 18 mg/kg) was 5,089 ng/mL, the “SN-38G as share of free SN-38 levels in serum” value ([2]; patients) was 20-40% and the “median time to progression” value ([2]; patients with SD or PR (N=18)) was 4.1 months. The “time to progression, range” value ([2]; patients with SD or PR (N=18)) was 2.6-12.8 months, the “patients with response or disease stabilization” value ([2]; patients with prior topoisomerase I inhibitor) was 7 of 9 and the “SN-38 in serum bound to IgG” value ([2]; peak samples, 30 min after infusion) was > 96%. The “time to progression from onset of therapy” value (“time … of therapy” for short) ([2]; responder with SCLC) was 2.9 months, the “time … of therapy” value ([2]; responder with TNBC) was 4.3 months and the “time … of therapy” value ([2]; responder with colon cancer) was 7.1 months. For the same substance, the “reduction of target lesions” value ([2]; two of nine patients with prior topoisomerase-I inhibitor therapy, listed as sacituzumab govitecan) was 28% and 38%, the “clinical benefit rate (PR+SD≥6 months)” value [2, 6] was 46% and the “overall response rate (PR)” value [2, 6] was 29%. The “anti-tumor effects vs non-specific control” value ([3]; 17.5 mg/kg, twice weekly x 4 weeks) was “significant anti-tumor effects”, the “median survival time (MST)” value ([3]; 14 days for saline control) was 66 days and the “mean time to progression (TTP)” value ([3]; mouse, in vivo) was 41.7 ± 4.2 days. The “partial responders, mice” value ([3]; mouse, in vivo) was 6 of 7, the “anti-tumor effect vs untreated” value ([4]; all three dosing schemes of fractionated 2 mg) was “significant anti-tumor effect” and the TTP ([4]; eight doses of 0.25 mg) was 31.7 ± 14.5 days. The TTP ([4]; two doses of 1 mg (days 1 and 15)) was 22.4 ± 10.1 days, the “confirmed complete responses (CR), patients” value (TNBC; 10 mg/kg) was 2 and the “partial responses (PR), patients” value (TNBC; 10 mg/kg) was 13. For the same substance, the “stable disease (SD), patients” value (TNBC; 10 mg/kg) was 25, the objective response rate (TNBC; 15/52) was 29% and the “favorable response rate (CR plus PR plus SD)” value (TNBC; in vivo) was 71%. The “median time to progression” value (TNBC; in vivo) was 9.4 months, the therapeutic efficacy [5] was “better therapeutic efficacy than control treatments” and the IC50 (BxPC-3) was 4.03 nM. The IC50 (COLO 205) was 1.95 nM and the IC50 (SK-MES-1) was 23.1 nM.
